Measured values: ChEMBL document CHEMBL1135301, “Imidazole-based ligands of the Src SH2 protein” (Bioorg Med Chem Lett, 2002)

target: Proto-oncogene tyrosine-protein kinase Src (Homo sapiens, UniProt P12931); experiment: Binding affinity for p60 c-Src SH2 domain by scintillation proximity assay (SPA)
Sequence (P12931 2-536 limits assumed): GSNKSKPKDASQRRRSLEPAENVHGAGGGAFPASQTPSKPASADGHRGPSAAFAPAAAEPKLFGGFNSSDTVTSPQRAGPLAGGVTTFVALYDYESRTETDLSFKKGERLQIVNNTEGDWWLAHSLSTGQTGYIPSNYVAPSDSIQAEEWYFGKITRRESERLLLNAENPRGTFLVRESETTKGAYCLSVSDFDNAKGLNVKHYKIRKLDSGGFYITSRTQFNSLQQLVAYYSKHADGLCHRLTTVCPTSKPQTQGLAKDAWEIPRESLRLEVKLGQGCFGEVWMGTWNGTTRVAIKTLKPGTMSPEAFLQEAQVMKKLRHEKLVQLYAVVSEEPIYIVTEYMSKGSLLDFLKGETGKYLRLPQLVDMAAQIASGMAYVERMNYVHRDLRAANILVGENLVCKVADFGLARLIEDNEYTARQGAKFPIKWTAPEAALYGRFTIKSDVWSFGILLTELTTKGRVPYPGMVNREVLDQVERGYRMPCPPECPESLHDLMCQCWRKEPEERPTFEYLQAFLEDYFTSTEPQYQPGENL

IC50	SMILES
6.9 µM	CCOC(=O)c1c(SCC2CCCCC2)nc(C(C)NC(=O)[C@H](Cc2ccc(OP(=O)(O)O)cc2)NC(C)=O)n1C (stereo partly drawn)
8.6 µM	CC(=O)N[C@@H](Cc1ccc(OP(=O)(O)O)cc1)C(=O)NC(C)c1nc(SCC2CCCCC2)c(C(N)=O)n1C (stereo partly drawn)
5.3 µM	CC(=O)N[C@@H](Cc1ccc(C(F)(F)P(=O)(O)O)cc1)C(=O)NC(C)c1nc(SCC2CCCCC2)c(C(N)=O)n1C (stereo partly drawn)
